Assay results as given in patent US20120142763A1, “NUCLEIC ACID DELIVERY COMPOSITIONS AND METHODS OF USE THEREOF” (THE REGENTS OF THE UNIVERSITY OF CALIFORNIA, priority 2009, published 2012).
Where two headings read alike, the source gives them in different places.

Legend:
[1] = Solubility of charge-protected oligonucleotide in salt solution; assay type: physicochemical

In the case of “SEQ ID NO:23: RNAi against GFP comprising SEQ ID NO:23 having N1-U-SATE nucleotides; 21 mer charge-protected oligonucleotide (CCACUACCUGAGCACCCAGTTTUGGUGAUGGACUCGUGGGUC; contains N1-U-SATE charge-protected nucleotides, positions not given here)”, the “solubility in salt solution” value [1] is reported as “soluble in salt solution”, the “inhibition of expression of GFP (dose response curves)” value (GFP; at 24 hours) is reported as “inhibition of expression of GFP” and the “inhibition of expression of GFP (dose response curves)” value (GFP; at 48 hours) is reported as “inhibition of expression of GFP”.
